The record followed here is publication PMC6521598, “Identification of GLPG/ABBV-2737, a Novel Class of Corrector, Which Exerts Functional Synergy With Other CFTR Modulators” (Frontiers in Pharmacology, 2019).

One assay concerns the target T1, F508del/G550E CFTR (Homo sapiens, UniProt P13569, DEL508-508/G550E).
T1 construct: expressed in transfected cells; host or cells: HEK293
Nature of the assay: YFP halide assay (YHA), HEK293, F508del/G550E. The assay is classed as cell-based. The settings on record: 24 h; 1 μM forskolin + 0.5 μM potentiator. The protocol: (§1) HEK293 cells were transfected with 10–80 ng of plasmid encoding F508del, E92K, P67L, V232D, F508del/G550E, F508del/I539T or wild type CFTR and 20 ng of plasmid encoding YFP (H148Q/I152L/F47L) using jetPEI (Polyplus transfection). Directly after transfection, cells were seeded in black 96-well plates coated with poly-D-lysine at a density of 70,000 cells per well. The next day, cells were treated with corrector(s) for 24 h. After this incubation period, cells were washed twice with DPBS with Ca^2+ and Mg^2+. Subsequently, cells were treated with 10 μM forskolin and the desired concentration of potentiator in a volume of 40 μl and incubated at room temperature for 10 min, a time point optimized in previous experiments resulting in a good window (positive control/negative control > 2) and signal to background ratio. YFP fluorescence was measured using an EnVision plate reader (PerkinElmer). […] The excitation wavelength was 485 nm and the emission wavelength 530 nm. The capacity of potentiators to increase CFTR channel function was expressed as 1-(fluorescence 7 s after NaI addition (F)/fluorescence before NaI addition (F0)). […]
(§2) FIGURE 7 YHA assay using CFTR mutant overexpression in HEK293 cells. […] After washing, cells were triggered with forskolin (50 μM for F508del, E92K, V232D and F508del/I539T, 10 μM for P67L or 1 μM for F508del/G550E) and 0.5 μM potentiator and YFP fluorescence was measured. Efficacy was determined using 10 μM GLPG2222 as positive control and DMSO as negative control in the assay. […] All values containing these digits are best readings, e.g. GLPG2222 P67L EC50 206 (± 98), GLPG2222 E92K EC50 503 (± 109), VX809 F508del EC50 286 (± 35), VX809 P67L % of reference 88 (± 3), GLPG2737 F508del % of reference 138 (± 9). / GLPG2737, EC50 for P67L and E92K is printed as NA; left out because no value is given. / VX809, E92K EC50 error: 17, a digit may be missing.

For another assay, the target named is T2, A455E CFTR (Homo sapiens, UniProt P13569, A455E).
T2 construct: expressed in transfected cells; host or cells: HEK293
T2 sequence (P13569 whole entry A455E): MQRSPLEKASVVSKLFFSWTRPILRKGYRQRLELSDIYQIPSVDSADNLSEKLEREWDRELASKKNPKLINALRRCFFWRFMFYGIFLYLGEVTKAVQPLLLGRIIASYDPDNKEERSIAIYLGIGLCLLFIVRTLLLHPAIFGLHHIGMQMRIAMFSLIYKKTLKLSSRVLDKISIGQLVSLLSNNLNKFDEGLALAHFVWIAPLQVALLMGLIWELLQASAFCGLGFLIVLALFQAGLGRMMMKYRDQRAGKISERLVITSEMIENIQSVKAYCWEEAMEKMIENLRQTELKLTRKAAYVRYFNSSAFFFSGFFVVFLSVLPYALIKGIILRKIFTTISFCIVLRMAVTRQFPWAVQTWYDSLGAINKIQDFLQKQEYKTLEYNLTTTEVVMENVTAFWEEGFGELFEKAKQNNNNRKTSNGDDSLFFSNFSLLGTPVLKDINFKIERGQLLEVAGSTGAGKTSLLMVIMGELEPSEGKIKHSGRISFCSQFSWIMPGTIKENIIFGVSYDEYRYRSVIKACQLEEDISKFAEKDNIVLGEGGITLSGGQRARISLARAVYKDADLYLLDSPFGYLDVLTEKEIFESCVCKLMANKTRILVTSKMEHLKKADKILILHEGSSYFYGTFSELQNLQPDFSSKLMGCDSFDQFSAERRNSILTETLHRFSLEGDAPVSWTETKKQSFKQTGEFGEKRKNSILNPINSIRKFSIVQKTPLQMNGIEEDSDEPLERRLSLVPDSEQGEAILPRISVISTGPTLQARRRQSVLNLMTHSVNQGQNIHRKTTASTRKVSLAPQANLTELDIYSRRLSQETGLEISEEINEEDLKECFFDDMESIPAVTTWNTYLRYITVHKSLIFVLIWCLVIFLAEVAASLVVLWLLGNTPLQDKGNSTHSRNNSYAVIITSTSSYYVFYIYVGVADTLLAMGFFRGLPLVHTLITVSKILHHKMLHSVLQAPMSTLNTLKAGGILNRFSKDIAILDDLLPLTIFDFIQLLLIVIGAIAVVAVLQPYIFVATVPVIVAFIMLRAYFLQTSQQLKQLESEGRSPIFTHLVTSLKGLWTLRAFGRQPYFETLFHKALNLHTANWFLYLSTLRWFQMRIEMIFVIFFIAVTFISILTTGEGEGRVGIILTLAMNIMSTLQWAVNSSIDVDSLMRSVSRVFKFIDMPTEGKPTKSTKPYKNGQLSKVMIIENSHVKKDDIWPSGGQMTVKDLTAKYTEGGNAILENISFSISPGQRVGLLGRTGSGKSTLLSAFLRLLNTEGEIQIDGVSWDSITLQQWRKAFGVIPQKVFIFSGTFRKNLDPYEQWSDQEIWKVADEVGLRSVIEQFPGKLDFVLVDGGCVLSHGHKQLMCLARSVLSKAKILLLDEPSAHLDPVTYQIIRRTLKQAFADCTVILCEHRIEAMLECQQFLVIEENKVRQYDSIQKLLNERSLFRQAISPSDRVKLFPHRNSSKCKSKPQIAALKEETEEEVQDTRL
Description: YFP halide assay (YHA), HEK293, A455E. The settings on record: 24 h; forskolin + 0.5 μM potentiator. Format: cell-based.

The target of another assay is T3, F508del/I539T CFTR (Homo sapiens, UniProt P13569, DEL508-508/I539T).
T3 construct: expressed in transfected cells; host or cells: HEK293
T3 sequence (P13569 with tags, fused parts or gaps DEL508-508/I539T): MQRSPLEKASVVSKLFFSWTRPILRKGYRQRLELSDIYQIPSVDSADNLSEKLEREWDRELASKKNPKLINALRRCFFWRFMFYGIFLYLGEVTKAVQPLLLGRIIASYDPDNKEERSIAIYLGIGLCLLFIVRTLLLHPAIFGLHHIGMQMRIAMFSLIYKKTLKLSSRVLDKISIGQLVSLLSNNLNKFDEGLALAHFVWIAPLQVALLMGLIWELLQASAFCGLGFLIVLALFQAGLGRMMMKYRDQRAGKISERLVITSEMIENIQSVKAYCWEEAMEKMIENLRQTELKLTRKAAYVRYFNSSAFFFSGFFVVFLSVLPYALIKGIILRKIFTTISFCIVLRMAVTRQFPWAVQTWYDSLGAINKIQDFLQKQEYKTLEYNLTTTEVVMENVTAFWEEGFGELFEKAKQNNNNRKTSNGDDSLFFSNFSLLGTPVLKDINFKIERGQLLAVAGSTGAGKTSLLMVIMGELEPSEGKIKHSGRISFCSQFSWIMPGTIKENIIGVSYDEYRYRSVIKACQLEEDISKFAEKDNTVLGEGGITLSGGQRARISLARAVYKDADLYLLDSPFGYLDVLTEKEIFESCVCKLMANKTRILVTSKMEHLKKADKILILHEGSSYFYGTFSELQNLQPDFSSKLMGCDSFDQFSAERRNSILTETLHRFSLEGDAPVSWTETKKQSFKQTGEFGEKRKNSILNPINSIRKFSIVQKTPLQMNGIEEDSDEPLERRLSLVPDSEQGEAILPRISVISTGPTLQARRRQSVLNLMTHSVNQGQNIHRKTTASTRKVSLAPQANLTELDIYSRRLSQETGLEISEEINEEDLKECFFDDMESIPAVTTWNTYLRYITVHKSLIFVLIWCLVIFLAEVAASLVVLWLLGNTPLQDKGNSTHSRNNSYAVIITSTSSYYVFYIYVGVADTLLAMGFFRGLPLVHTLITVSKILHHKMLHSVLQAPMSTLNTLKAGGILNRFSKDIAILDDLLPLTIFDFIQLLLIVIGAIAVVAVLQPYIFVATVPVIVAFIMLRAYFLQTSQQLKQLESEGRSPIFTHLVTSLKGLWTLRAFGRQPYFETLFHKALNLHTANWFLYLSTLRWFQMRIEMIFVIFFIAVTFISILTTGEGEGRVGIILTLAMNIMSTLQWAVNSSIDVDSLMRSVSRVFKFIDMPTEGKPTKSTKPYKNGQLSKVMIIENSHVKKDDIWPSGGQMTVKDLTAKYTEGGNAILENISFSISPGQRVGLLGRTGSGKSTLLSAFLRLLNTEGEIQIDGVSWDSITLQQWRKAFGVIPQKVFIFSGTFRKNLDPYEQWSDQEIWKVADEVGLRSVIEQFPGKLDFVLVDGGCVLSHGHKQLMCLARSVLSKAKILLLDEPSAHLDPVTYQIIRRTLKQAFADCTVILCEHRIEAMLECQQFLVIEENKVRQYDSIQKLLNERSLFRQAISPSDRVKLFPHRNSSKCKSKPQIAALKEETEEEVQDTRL
Description: YFP halide assay (YHA), HEK293, F508del/I539T. The assay is classed as cell-based. The settings on record: 24 h; 50 μM forskolin + 0.5 μM potentiator. How it is done:
as §1, §2

A further assay has as its target F508del CFTR (Homo sapiens, UniProt P13569, DEL508-508). Description: Patch-clamp single-channel recording, inside-out patches of CHO cells. Format: cell-based, hamster. How it is done:
A more complete description of the patch-clamp methodology can be found in a recent publication ([Lin et al., 2016]). Briefly, CHO (Chinese Hamster Ovary) cells were transiently transfected with pcDNA plasmids containing a F508del CFTR construct and pEGFP-C3. After transfection, cells were trypsinized and plated onto 35 mm tissue culture dishes dispersed with sterilized glass chips. Electrophysiological experiments were performed 3–7 days following transfection.
Patch-clamp experiments were performed at room temperature with an EPC-9 patch clamp amplifier (HEKA Instruments, Holliston, MA, United States). Recording microelectrodes were made from borosilicate capillary glass with a two-stage pipette puller (Narishige, Tokyo, Japan). The pipette tip was polished with a home-made microforge before use. The pipette solution contained (in mM) 140 NMDG (N-methyl-D-glucamine)-Cl (Fisher Biotec), 2 MgCl2 (Fisher Biotec, Perth, WA, Australia), 5 CaCl2 (Fisher Biotec), and 10 HEPES (Fisher Biotec), pH 7.4, with NMDG (see [Lin et al., 2016] for details). The pipette resistance when filled with the regular pipette solution was 3–5 MΩ. Once the tip of the pipette and the cell membrane established GΩ resistance, the electrode was quickly pulled away from the cell to form an inside-out patch, where the cytosolic side of the membrane was exposed to the perfusion solution. Cells were perfused with a bath solution having (in mM) 145 NaCl (Fisher Biotec), 5 KCl (Fisher Biotec), 2 MgCl2, 1 CaCl2, 5 glucose (Fisher Biotec), 5 HEPES, and 20 sucrose (Fisher Biotec), pH 7.4, with NaOH (Fisher Biotec). After establishing an inside-out configuration, the patch was perfused with a standard perfusion solution (i.e., intracellular solution) containing (in mM) 150 NMDG-Cl, 2 MgCl2, 10 EGTA (Fisher Biotec), and 8 Tris (Fisher Biotec), pH 7.4, with NMDG (see [Lin et al., 2016] for details) containing the catalytic subunit of protein kinase A (PKA) and 2 mM ATP. Once the phosphorylation-dependent activation of CFTR reached a plateau, 10 μM GLPG3067 was applied in the continuous presence of 2 mM ATP until a steady state was attained.
Microscopic kinetic analysis was performed with a program provided by Dr. László Csanády (Semmelweis University, Budapest, Hungary) ([Csanády, 2000]). Experiments were performed four to five times and averages and SEM were calculated. The resulting Open probability (Po) values and single-channel kinetic parameters were compared with paired t-test (Excel, Microsoft); P < 0.05 is considered statistically significant.
Background: The patch-clamp technique gives a direct electrical read-out from membranes.

The target of a further assay is T4, V232D CFTR (Homo sapiens, UniProt P13569, V232D).
T4 construct: expressed in transfected cells; host or cells: HEK293
T4 sequence (P13569 whole entry V232D): as the sequence (P13569 whole entry A455E) above, with V232D, E455A counted along it
Description: YFP halide assay (YHA), HEK293, V232D. Format: cell-based. The settings on record: 24 h; 50 μM forskolin + 0.5 μM potentiator. How it is done:
as §1, §2

[1] abbreviates: cells treated 24 h with 0.5 μM GLPG2222 only, n = 3.
[2] abbreviates: acute addition of 1 μM GLPG2737 on top of 0.5 μM GLPG2222 + 10 μM GLPG3067.
Setting [3] is: cells pre-treated 24 h with 0.5 μM GLPG2222 + 1 μM GLPG2737 + 10 μM GLPG3067, compounds in recording solution.
Where [4] appears, read: same pre-treatment, after washout of GLPG2737 (GLPG2222 + GLPG3067 present).

Where only a bound is given, the exact number is not on record here.

One may read the EC50 as the concentration at which the effect is half-maximal.

F508del CFTR, sequence (P13569 with tags, fused parts or gaps DEL508-508): as the sequence (P13569 with tags, fused parts or gaps DEL508-508/I539T) above, with T538I counted along it
T1 sequence (P13569 with tags, fused parts or gaps DEL508-508/G550E): as the sequence (P13569 with tags, fused parts or gaps DEL508-508/I539T) above, with T538I, G549E counted along it

As to `O=C(O)c1ccc([C@H]2C[C@@H](NC(=O)C3(c4ccc5c(c4)OC(F)(F)O5)CC3)c3ccc(OC(F)F)cc3O2)cc1` [GLPG2222, 4-[(2 R,4 R)-4-({[1-(2,2-Difluoro-1,3-benzodioxol-5-yl)cyclopropyl]carbonyl}amino)-7-(difluoromethoxy)-3,4-dihydro-2 H -chromen-2-yl]benzoic Acid], the EC50 on F508del/G550E CFTR is 9 nM; on A455E CFTR, 33 nM; at F508del/I539T CFTR it was 4 nM; on V232D CFTR, 14 nM. Also, on F508del CFTR (setting [1]), the Po is reported as 0.04 ± 0.01. The same compound registered a τc on F508del CFTR (setting [1]) of 6.88 ± 3.36 s. This compound showed a τo on F508del CFTR (setting [1]) of 0.25 ± 0.08 s.

Regarding `COC1CCN(C2CCN(c3cc(C(=O)NS(=O)(=O)N(C)C)nc4c3c(C3CCC3)nn4-c3ccc(F)cc3)CC2)CC1` [GLPG2737], the EC50 was 251 nM at F508del/G550E CFTR, more than 2640 nM at A455E CFTR, 67 nM on F508del/I539T CFTR and 161 nM at V232D CFTR. Besides, the Po on F508del CFTR (setting [2]) turned out to be 0.15 ± 0.01; on F508del CFTR (setting [4]), 0.63 ± 0.05. Also, the τc at F508del CFTR (setting [2]) is listed as 6.42 ± 1.24 s; at F508del CFTR (setting [3]) it was 10.35 ± 2.22 s; at F508del CFTR (setting [4]), 1.89 ± 0.38 s. For the same compound, the τo at F508del CFTR (setting [2]) worked out at 1.37 ± 0.33 s; at F508del CFTR (setting [3]), 2.68 ± 0.59 s; on F508del CFTR (setting [4]), 3.28 ± 0.09 s. At F508del CFTR (setting [3]), the “apparent Po” value came out at 0.21 ± 0.003.
